For this test, the target named is 5'-AMP-activated protein kinase catalytic subunit alpha-1/subunit beta-1/subunit gamma-1 (Homo sapiens, UniProt P54619+Q13131+Q9Y478). Description: in vitro AMPK activation assays. The settings on record: pH 7; 25 °C. The method, then: The test compounds were dissolved in 100% DMSO at a concentration of 10 mM and in a first step diluted in DMSO to a concentration of 5 mM, followed by serial dilution steps in 100% DMSO. Dilution factor and number of dilution steps may vary. Typically 8 different concentrations by 1:5 dilutions were prepared, further dilutions of the substances were carried out with test buffer (20 mM Hepes (pH 7.0), 15 mM MgCl2, 0.025% BSA, 0.01% Brij 35) until a concentration was reached which was 5 times above the final test concentration. 2 μl aliquots of these dilutions were transferred into a 384-well Optiplate (Perkin Elmer, #6007290). Typically the start concentration for serial dilutions in the assay is 10 μM. Typically AMPK was diluted to 25 μg/ml in the test buffer and 4 μl of this dilution were used in the kinase test (final concentration of AMPK is 10 μg/ml in a total volume of 10 μl for the kinase reaction). Kinase concentrations may vary depending on activity of the preparation batches. […] The plates were read with an Envision Luminescence Reader (Perkin-Elmer).
5'-AMP-activated protein kinase catalytic subunit alpha-1/subunit beta-1/subunit gamma-1, sequence (Q9Y478 whole entry): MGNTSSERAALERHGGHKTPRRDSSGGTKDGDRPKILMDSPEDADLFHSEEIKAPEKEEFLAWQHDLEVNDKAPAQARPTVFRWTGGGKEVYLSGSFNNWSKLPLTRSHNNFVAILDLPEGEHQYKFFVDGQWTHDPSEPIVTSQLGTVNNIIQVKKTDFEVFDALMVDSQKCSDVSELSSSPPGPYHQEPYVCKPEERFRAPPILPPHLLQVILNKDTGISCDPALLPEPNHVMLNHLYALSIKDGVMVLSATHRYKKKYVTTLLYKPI
5'-AMP-activated protein kinase catalytic subunit alpha-1/subunit beta-1/subunit gamma-1, sequence (P54619 whole entry): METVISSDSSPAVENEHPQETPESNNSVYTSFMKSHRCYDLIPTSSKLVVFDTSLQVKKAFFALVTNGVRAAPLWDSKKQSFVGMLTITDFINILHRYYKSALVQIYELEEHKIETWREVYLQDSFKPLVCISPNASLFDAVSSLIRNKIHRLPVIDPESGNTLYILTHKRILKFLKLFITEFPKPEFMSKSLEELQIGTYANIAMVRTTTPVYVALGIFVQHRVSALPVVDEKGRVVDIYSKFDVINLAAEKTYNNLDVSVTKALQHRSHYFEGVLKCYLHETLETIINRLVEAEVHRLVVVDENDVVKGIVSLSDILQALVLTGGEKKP
5'-AMP-activated protein kinase catalytic subunit alpha-1/subunit beta-1/subunit gamma-1, sequence (Q13131 whole entry): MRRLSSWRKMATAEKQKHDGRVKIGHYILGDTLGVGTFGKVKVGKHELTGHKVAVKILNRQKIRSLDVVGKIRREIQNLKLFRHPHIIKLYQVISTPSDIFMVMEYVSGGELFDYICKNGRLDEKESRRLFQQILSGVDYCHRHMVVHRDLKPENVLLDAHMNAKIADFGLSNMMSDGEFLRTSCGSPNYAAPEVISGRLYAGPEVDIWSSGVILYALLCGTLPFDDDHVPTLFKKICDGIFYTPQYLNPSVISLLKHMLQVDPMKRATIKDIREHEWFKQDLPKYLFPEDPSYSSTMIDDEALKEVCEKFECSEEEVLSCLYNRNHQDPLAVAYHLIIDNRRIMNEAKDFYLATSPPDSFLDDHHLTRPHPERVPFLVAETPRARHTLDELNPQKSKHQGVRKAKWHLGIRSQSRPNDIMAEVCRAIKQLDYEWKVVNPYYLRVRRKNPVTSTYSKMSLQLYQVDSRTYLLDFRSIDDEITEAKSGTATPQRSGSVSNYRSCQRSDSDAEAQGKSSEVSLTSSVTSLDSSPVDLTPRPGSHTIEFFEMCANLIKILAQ

As for `CS(=N)(=O)c1ccc(-c2ccc(-c3nc4[nH]c(O[C@@H]5CO[C@H]6[C@@H]5OC[C@H]6O)nc4cc3Cl)cc2)c(F)c1` (stereo partly specified) [US10053471, 13], the EC50 was 71 nM.

The values are drawn from BindingDB's records for patent US10053471 (Boehringer Ingelheim International, 2018).
